Experimental data published in patent publication US12281149B2, “Modulators of G-protein coupled receptors” (priority 2021, dated 2025).
*1 amine or outer side, *2 acyl side, *3 side chain or, on linkers, in order; H or OH if unused. Where a SMILES comes first, the peptide text is derived from it. Side-chain parts run from the residue outwards. [ ]: non-standard residue; d: D form. The star is where a group is joined. Isobutyryl(2-(3-CN-5-F-Ph)) = CC(C)(C(=O)*)c1cc(F)cc(C#N)c1; C20 diacid = O=C(O)CCCCCCCCCCCCCCCCCCC(=O)*; αMePhe(2-F) = C[C@](N)(Cc1ccccc1F)C(=O)O; γGlu = O=C(O)[C@H](CCC(=O)[*:2])N[*:1]; X37 = CC(C)(C(=O)*)c1cc(F)ccc1F; X14 = CC(C)(C(=O)*)n1cc(Br)cn1; αMeL = CC(C)C[C@](C)(N)C(=O)O; Orn = NCCC[C@H](N)C(=O)O; AEEA = NCCOCCOCC(=O)O; Aib = CC(C)(N)C(=O)O; βAla = NCCC(=O)O

What was measured:
Format in all cases: cell-based
GLP-1 receptor [1] = molecular target: T1, GLP-1 receptor (Homo sapiens, UniProt P43220); test: PathHunter β-arrestin assay, GLP-1 receptor; design: host or cells: PathHunter CHO-K1 GLP1R β-Arrestin Cell Line; settings: β-arrestin-2 recruitment, PathHunter CHO-K1 GLP1R β-Arrestin Cell Line, 90 min at 37° C.; normalized to GLP-1; read-out: GLP-1R β Arrestin EC50
GIP receptor [2] = molecular target: T2, GIP receptor (Homo sapiens, UniProt P48546); test: PathHunter β-arrestin assay, GIP receptor; design: host or cells: PathHunter CHO-K1 GIPR β-Arrestin Cell Line; settings: β-arrestin-2 recruitment, PathHunter CHO-K1 GIPR β-Arrestin Cell Line, 90 min at 37° C.; normalized to GIP; read-out: GIPR β Arrestin EC50
T2 sequence (P48546 22-466): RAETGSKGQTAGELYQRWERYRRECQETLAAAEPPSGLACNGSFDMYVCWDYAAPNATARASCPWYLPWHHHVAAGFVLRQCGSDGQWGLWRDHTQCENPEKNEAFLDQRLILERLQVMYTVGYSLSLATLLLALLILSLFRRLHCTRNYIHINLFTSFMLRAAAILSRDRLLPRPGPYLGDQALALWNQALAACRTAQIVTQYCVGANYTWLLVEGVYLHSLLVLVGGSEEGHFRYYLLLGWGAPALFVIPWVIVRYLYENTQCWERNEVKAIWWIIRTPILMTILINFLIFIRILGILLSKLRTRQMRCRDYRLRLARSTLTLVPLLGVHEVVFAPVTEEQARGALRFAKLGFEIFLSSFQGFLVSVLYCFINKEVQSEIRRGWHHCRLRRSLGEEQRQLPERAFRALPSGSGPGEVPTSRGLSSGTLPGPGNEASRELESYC
Description: β-arrestin-2 recruitment for GLP-1 receptor or GIP receptor was measured using the DiscoverX PathHunter Detection Kit and PathHunter® CHO-K1 GLPIR β-Arrestin Cell Line or PathHunter® CHO-K1 GIPR β-Arrestin Cell Line, respectively). Briefly, cells were grown in Ham's F12 Nutrient Mix with 10% FBS and lifted with Cell dissociation buffer, Enzyme free, PBS based (ThermoFisher). Harvested cells were pelleted and resuspended in Assay Complete Cell Plating Reagent 2 and 5000 cells per well were plated in tissue culture treated 384-well small volume white assay plates. Plates were then incubated at 37° C. and 5% CO2 overnight. The media was then replaced with fresh Assay Complete Cell Plating Reagent 2. Cells were then treated with 10 nl compound in DMSO using an ECHO 550 acoustic dispenser (Labcyte) in a 20-point dose response format in duplicate for 90 min at 37° C. The assay was then completed according to the manufacturer's instructions. Luminescence was measured using a Perkin Elmer Envision plate reader. Raw data was normalized to the maximum signal from GLP-1 or GIP (high) and DMSO (low). Dose response curves were analyzed using GraphPad Prism 9.0.

GIP receptor [3] = molecular target: T2, GIP receptor; test: HitHunter cAMP assay, GIP receptor; settings: for EC50: CHO cells stably expressing GIP receptor, cAMP accumulation, 30 min, read-out: EC50 GIP-1R; for Emax: CHO cells, cAMP, normalized to maximum signal from GIP (high) and DMSO (low), read-out: Emax GIP-1R
GLP-1 receptor [4] = molecular target: T1, GLP-1 receptor; test: HitHunter cAMP assay, GLP-1 receptor; settings: for EC50: CHO cells stably expressing human GLP-1 receptor, cAMP accumulation, 30 min, read-out: EC50 GLP-1R; for Emax: CHO cells, cAMP, normalized to maximum signal from GLP-1 (high) and DMSO (low), read-out: Emax GLP-1R

T1 sequence (P43220 24-463): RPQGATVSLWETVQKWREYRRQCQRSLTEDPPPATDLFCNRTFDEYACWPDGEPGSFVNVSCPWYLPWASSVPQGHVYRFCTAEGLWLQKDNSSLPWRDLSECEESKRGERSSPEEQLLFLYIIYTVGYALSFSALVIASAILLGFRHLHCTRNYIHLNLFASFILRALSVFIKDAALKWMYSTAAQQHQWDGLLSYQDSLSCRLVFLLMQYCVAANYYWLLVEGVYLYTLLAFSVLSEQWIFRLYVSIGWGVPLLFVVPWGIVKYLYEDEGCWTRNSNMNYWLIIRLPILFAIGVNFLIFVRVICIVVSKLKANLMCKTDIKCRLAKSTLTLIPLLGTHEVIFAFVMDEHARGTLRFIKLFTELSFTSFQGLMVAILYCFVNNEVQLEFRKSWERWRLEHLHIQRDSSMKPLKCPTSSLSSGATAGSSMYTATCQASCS

SMILES	EC50 (GLP-1 receptor [1]) [nM]	EC50 (GIP receptor [2]) [nM]	EC50 (GIP receptor [3]) [nM]	Emax (GIP receptor [3]) [%]	EC50 (GLP-1 receptor [4]) [nM]	Emax (GLP-1 receptor [4]) [%]
CC[C@H](C)[C@H](NC(=O)[C@H](CC(C)C)NC(=O)[C@H](Cc1c[nH]c2ccccc12)NC(=O)[C@H](CCC(N)=O)NC(=O)[C@@H](NC(=O)[C@H](Cc1ccccc1)NC(=O)[C@H](C)NC(=O)[C@H](CCCCNC(=O)COCCOCCNC(=O)COCCOCCNC(=O)CC[C@H](NC(=O)CCCCCCCCCCCCCCCCCCC(=O)O)C(=O)O)NC(=O)[C@H](CCC(N)=O)NC(=O)[C@H](C)NC(=O)[C@@H](NC(=O)[C@H](CCCCN)NC(=O)[C@H](CC(=O)O)NC(=O)[C@H](CC(C)C)NC(=O)C(C)(C)NC(=O)[C@@H](NC(=O)[C@H](CO)NC(=O)[C@H](Cc1ccc(O)cc1)NC(=O)[C@H](CC(=O)O)NC(=O)[C@H](CO)NC(=O)[C@@H](NC(=O)[C@H](Cc1ccccc1)NC(=O)[C@@H](NC(=O)CNC(=O)[C@H](CCC(=O)O)NC(=O)CCNC(=O)C(C)(C)c1cc(F)ccc1F)[C@@H](C)O)[C@@H](C)O)[C@@H](C)CC)[C@@H](C)CC)C(C)C)C(=O)N[C@@H](C)C(=O)NCC(=O)NCC(=O)N1CCC[C@H]1C(=O)N[C@@H](CO)C(=O)N[C@@H](CO)C(=O)NCC(=O)N[C@@H](C)C(=O)N1CCC[C@H]1C(=O)N1CCC[C@H]1C(=O)N1CCC[C@H]1C(=O)N[C@@H](CO)C(N)=O [Compound 146] ({X37-βAla}-EGTFTSDYSI[Aib]LDKIAQK([AEEA-AEEA-γGlu-C20 diacid])AFVQWLIAGGPSSGAPPPS-NH2)	> 1000	< 1000	1 to 10	104	0.1 to 1	102
CC[C@H](C)[C@H](NC(=O)[C@H](CC(C)C)NC(=O)[C@H](Cc1c[nH]c2ccccc12)NC(=O)[C@H](CCC(N)=O)NC(=O)[C@@H](NC(=O)[C@H](Cc1ccccc1)NC(=O)[C@H](C)NC(=O)[C@H](CCCCNC(=O)COCCOCCNC(=O)COCCOCCNC(=O)CC[C@H](NC(=O)CCCCCCCCCCCCCCCCCCC(=O)O)C(=O)O)NC(=O)[C@H](CCC(N)=O)NC(=O)[C@H](C)NC(=O)[C@@H](NC(=O)[C@H](CCCCN)NC(=O)[C@H](CC(=O)O)NC(=O)[C@H](CC(C)C)NC(=O)C(C)(C)NC(=O)[C@@H](NC(=O)[C@H](CO)NC(=O)[C@H](Cc1ccc(O)cc1)NC(=O)[C@H](CC(=O)O)NC(=O)[C@H](CO)NC(=O)[C@@H](NC(=O)[C@H](Cc1ccccc1)NC(=O)[C@@H](NC(=O)CNC(=O)[C@H](CCC(=O)O)NC(=O)CCNC(=O)C(C)(C)n1cc(Br)cn1)[C@@H](C)O)[C@@H](C)O)[C@@H](C)CC)[C@@H](C)CC)C(C)C)C(=O)N[C@@H](C)C(=O)NCC(=O)NCC(=O)N1CCC[C@H]1C(=O)N[C@@H](CO)C(=O)N[C@@H](CO)C(=O)NCC(=O)N[C@@H](C)C(=O)N1CCC[C@H]1C(=O)N1CCC[C@H]1C(=O)N1CCC[C@H]1C(=O)N[C@@H](CO)C(N)=O [Compound 131] ({X14-βAla}-EGTFTSDYSI[Aib]LDKIAQK([AEEA-AEEA-γGlu-C20 diacid])AFVQWLIAGGPSSGAPPPS-NH2)	> 1000	> 1000	10 to 100	96	0.1 to 1	102
CC[C@H](C)[C@H](NC(=O)[C@H](CO)NC(=O)[C@H](Cc1ccc(O)cc1)NC(=O)[C@H](CC(=O)O)NC(=O)[C@H](CO)NC(=O)[C@@H](NC(=O)[C@H](Cc1ccccc1)NC(=O)[C@@H](NC(=O)CNC(=O)[C@H](CCC(=O)O)NC(=O)CCNC(=O)C1(n2cccn2)CCOC(C)C1)[C@@H](C)O)[C@@H](C)O)C(=O)N[C@@H](Cc1ccc(O)cc1)C(=O)N[C@@H](CC(C)C)C(=O)N[C@@H](CC(=O)O)C(=O)N[C@@H](CCCCN)C(=O)N[C@@H](CCC(N)=O)C(=O)N[C@@H](C)C(=O)N[C@@H](C)C(=O)NC(C)(C)C(=O)N[C@@H](CCC(=O)O)C(=O)N[C@@H](Cc1ccccc1)C(=O)N[C@H](C(=O)N[C@@H](CC(N)=O)C(=O)N[C@@H](Cc1c[nH]c2ccccc12)C(=O)N[C@@H](CC(C)C)C(=O)N[C@@H](CC(C)C)C(=O)N[C@@H](C)C(=O)NCC(=O)NCC(=O)N1CCC[C@H]1C(=O)N[C@@H](CO)C(=O)N[C@@H](CO)C(=O)NCC(=O)N[C@@H](C)C(=O)N1CCC[C@H]1C(=O)N1CCC[C@H]1C(=O)N1CCC[C@H]1C(=O)N[C@@H](CO)C(=O)N[C@@H](CCCCNC(=O)COCCOCCNC(=O)COCCOCCNC(=O)CC[C@H](NC(=O)CCCCCCCCCCCCCCCCCCC(=O)O)C(=O)O)C(N)=O)C(C)C (stereo partly drawn) [Compound 101]	> 1000	> 1000	10 to 100	96	1 to 10	93
CC[C@H](C)[C@H](NC(=O)[C@H](CC(C)C)NC(=O)[C@H](Cc1ccc(O)cc1)NC(=O)[C@@H](CCC(=O)O)NC(=O)[C@@H](NC(=O)[C@H](Cc1ccccc1)NC(=O)[C@H](CCC(=O)O)NC(=O)C(C)(C)NC(=O)[C@H](CCC(N)=O)NC(=O)[C@H](C)NC(=O)[C@H](CCCCNC(=O)COCCOCCNC(=O)COCCOCCNC(=O)CC[C@H](NC(=O)CCCCCCCCCCCCCCCCCCC(=O)O)C(=O)O)NC(=O)[C@H](CCCN)NC(=O)[C@H](CC(=O)O)NC(=O)[C@H](CC(C)C)NC(=O)[C@](C)(CC(C)C)NC(=O)[C@@H](NC(=O)[C@H](CO)NC(=O)[C@H](Cc1ccc(O)cc1)NC(=O)[C@H](CC(=O)O)NC(=O)[C@H](CO)NC(=O)[C@@H](NC(=O)[C@](C)(Cc1ccccc1F)NC(=O)[C@@H](NC(=O)CNC(=O)[C@H](CCC(=O)O)NC(=O)CCNC(=O)C(C)(C)c1cc(F)cc(C#N)c1)[C@@H](C)O)[C@@H](C)O)[C@@H](C)CC)[C@@H](C)CC)C(=O)N[C@@H](CCC(=O)O)C(=O)NCC(=O)NCC(=O)N1CCC[C@H]1C(=O)N[C@@H](CO)C(=O)N[C@@H](CO)C(=O)NCC(=O)N[C@@H](C)C(=O)N1CCC[C@H]1C(=O)N1CCC[C@H]1C(=O)N1CCC[C@H]1C(=O)N[C@@H](CO)C(N)=O [Compound 140] ({Isobutyryl(2-(3-CN-5-F-Ph))-βAla}-EGT[αMePhe(2-F)]TSDYSI[αMeL]LD[Orn]K([AEEA-AEEA-γGlu-C20 diacid])AQ[Aib]EFI[dE]YLIEGGPSSGAPPPS-NH2)	> 1000	< 1000	< 0.1	108	< 0.1	104
CC[C@H](C)[C@H](NC(=O)[C@H](CO)NC(=O)[C@H](Cc1ccc(O)cc1)NC(=O)[C@H](CC(=O)O)NC(=O)[C@H](CO)NC(=O)[C@@H](NC(=O)[C@H](Cc1ccccc1)NC(=O)[C@@H](NC(=O)CNC(=O)[C@H](CCC(=O)O)NC(=O)CCNC(=O)[C@@]1(c2ccccc2)CNC(=O)C1)[C@@H](C)O)[C@@H](C)O)C(=O)N[C@@H](Cc1ccc(O)cc1)C(=O)N[C@@H](CC(C)C)C(=O)N[C@@H](CC(=O)O)C(=O)N[C@@H](CCCCN)C(=O)N[C@@H](CCC(N)=O)C(=O)N[C@@H](C)C(=O)N[C@@H](C)C(=O)NC(C)(C)C(=O)N[C@@H](CCC(=O)O)C(=O)N[C@@H](Cc1ccccc1)C(=O)N[C@H](C(=O)N[C@@H](CC(N)=O)C(=O)N[C@@H](Cc1c[nH]c2ccccc12)C(=O)N[C@@H](CC(C)C)C(=O)N[C@@H](CC(C)C)C(=O)N[C@@H](C)C(=O)NCC(=O)NCC(=O)N1CCC[C@H]1C(=O)N[C@@H](CO)C(=O)N[C@@H](CO)C(=O)NCC(=O)N[C@@H](C)C(=O)N1CCC[C@H]1C(=O)N1CCC[C@H]1C(=O)N1CCC[C@H]1C(=O)N[C@@H](CO)C(=O)N[C@@H](CCCCNC(=O)COCCOCCNC(=O)COCCOCCNC(=O)CC[C@H](NC(=O)CCCCCCCCCCCCCCCCCCC(=O)O)C(=O)O)C(N)=O)C(C)C (single isomer, unassigned) [Compound 125]	> 1000	> 1000	10 to 100	105	10 to 100	101
